Here are results for two molecules from patent publication US20210352905A1, “COMPOSITIONS AND METHODS TO DISINFECT, TREAT AND PREVENT MICROBIAL INFECTIONS” (WIAB WATER INNOVATION AB, priority 2020, published 2021).

One data set concerns S. aureus biofilms. Conditions: 1% acetic acid alone, FIG. 2.
For a further data set, the system named is pre-formed biofilm. Conditions: Halstead et al, PLOS ONE (2015); cited from earlier work.
For a further data set, the system named is human rhinovirus (HRV). To be noted: low concentration hypochlorous acid nasal irrigation solution, in vitro, nasal epithelial cells; cited from earlier work.
In a further data set the test system is avian influenza virus. Conditions: similar formulations, in vitro; cited from earlier work.
The conditions of data set [1]: cited from earlier work.

As to `CC(=O)O` [acetic acid], the “effect on the biofilm” value in the data set on S. aureus biofilms was “only minor effect”. Further, the “concentrations of acetic acid that eradicated a pre-formed biofilm” value with pre-formed biofilm was 0.10% to 2.5.

For the molecule `OCl` [hypochlorous acid], the virus-killing effect result with human rhinovirus (HRV) is listed as “significant virus-killing effect”. In addition, the “effects against avian influenza virus” value with avian influenza virus was “good effects”. For the same molecule, in data set [1], the pKa result is on record as “about 7”.
